In ChEMBL document CHEMBL4052612, “Isolation and Identification of the Novel Tubulin Polymerization Inhibitor Bifidenone” (J Nat Prod, 2017):
The source made the active and inactive calls. The calls are words filed in the database; no cut-off is given here.

Tests used:
[1] = tested on: NCI-H460; assay: Antiproliferative activity against human NCI-H460 cells after 72 hrs by CellTiter96 AQueous nonradioactive cell proliferation assay; format: functional, cell-based; conditions: NCI-H460, 72 h
[2] = tested on: PC-3; assay: Antiproliferative activity against human PC3 cells after 72 hrs by CellTiter96 AQueous nonradioactive cell proliferation assay; format: functional, cell-based; conditions: PC-3, 72 h
[3] = tested on: SF-295; assay: Antiproliferative activity against human SF295 cells after 72 hrs by CellTiter96 AQueous nonradioactive cell proliferation assay; format: functional, cell-based; conditions: SF-295, 72 h
[4] = tested on: ACHN; assay: Antiproliferative activity against human ACHN cells after 72 hrs by CellTiter96 AQueous nonradioactive cell proliferation assay; format: functional, cell-based
[5] = tested on: M14; assay: Antiproliferative activity against human M14 cells after 72 hrs by CellTiter96 AQueous nonradioactive cell proliferation assay; format: functional, cell-based; conditions: M14, 72 h
[6] = tested on: A-375; assay: Antiproliferative activity against human A375 cells after 72 hrs by CellTiter96 AQueous nonradioactive cell proliferation assay; format: functional, cell-based; conditions: A-375, 72 h
[7] = tested on: UACC-62; assay: Antiproliferative activity against human UACC62 cells after 72 hrs by CellTiter96 AQueous nonradioactive cell proliferation assay; format: functional, cell-based; conditions: UACC-62, 72 h
[8] = tested on: SK-MEL-2; assay: Antiproliferative activity against human SK-MEL-2 cells after 72 hrs by CellTiter96 AQueous nonradioactive cell proliferation assay; format: functional, cell-based; conditions: SK-MEL-2, 72 h
[9] = tested on: RAW264.7; assay: Antiproliferative activity against mouse RAW264.7 cells after 18 hrs by CellTiter96 AQueous nonradioactive cell proliferation assay; format: cell-based; conditions: RAW264.7, 18 h
[10] = tested on: NCI-H460; assay: Induction of apoptosis in human NCI-H460 cells upto 100 uM assessed as increase in caspase3/7 activity after 24 hrs by Caspase-Glo 3/7 assay relative to control; format: functional
[11] = tested on: NCI-H460; assay: Induction of necrosis in human NCI-H460 cells upto 100 uM assessed as increase in LDH levels after 24 hrs by CytoTox 96 nonradioactive cytotoxicity assay; format: functional, cell-based
[12] = organism: Sus scrofa; assay: Inhibition of pig brain tubulin polymerization measured every 1 min for 60 mins
[13] = tested on: HCC 2998; assay: Antiproliferative activity against human HCC2998 cells after 48 hrs by SRB assay; format: functional, cell-based; conditions: HCC 2998, 48 h
[14] = tested on: SR; assay: Antiproliferative activity against human SR cells after 48 hrs by SRB assay; format: functional, cell-based
[15] = tested on: Malme-3M; assay: Antiproliferative activity against human MALME-3M cells after 48 hrs by SRB assay; format: functional, cell-based
[16] = tested on: MDA-MB-435; assay: Antiproliferative activity against human MDA-MB-435 cells after SRB assay; format: functional, cell-based
[17] = tested on: NCI/ADR-RES; assay: Antiproliferative activity against human NCI-ADR-RES cells after 48 hrs by SRB assay; format: functional, cell-based
[18] = organism: Sus scrofa; assay: Displacement of colchicine from colchicine-binding site of pig brain tubulin up to 100 uM by LC-MS analysis
[19] = organism: Sus scrofa; assay: Displacement of vincristine from vinca alkaloid binding site of pig brain tubulin up to 100 uM by LC-MS analysis
[20] = tested on: NCI-H460; assay: Cell cycle arrest in human NCI-H460 cells assessed as accumulation at G2/M phase at 1.5 uM measured after 6 to 24 hrs in the presence of RNase A by propidium iodide staining-based flow cytometry analysis; format: functional
[21] = Antiproliferative activity against human NCI60 cells after 48 hrs by SRB assay; format: functional, cell-based; conditions: NCI60, 48 h

IC50 [1] [nM]	IC50 [2] [nM]	IC50 [4] [nM]	IC50 [6] [nM]	IC50 [8] [nM]	SMILES	IC50 [3] [nM]	IC50 [5] [nM]	IC50 [7] [nM]	IC50 [9] [nM]	IC50 [17] [nM]	also measured
260	490	360	75	95	C=CC[C@H]1C[C@]2([C@@H](C)Cc3ccc(OC)c(OC)c3)OCOC2=CC1=O	250	64	44	> 5000	170	fold change (FC) [10]: 2.5; Activity [11]: Active; inhibition [12]: Dose-dependent effect; IC50 [13]: 1410 nM; IC50 [14]: < 100 nM; IC50 [15]: < 100 nM; IC50 [16]: < 100 nM; inhibition [18]: Active; inhibition [19]: inactive; Activity [20]: Active; IC50 [21]: 270 nM
10	4	66	10	9	CC(=O)O[C@H]1C(=O)[C@@]2(C)[C@H]([C@H](OC(=O)c3ccccc3)[C@]3(O)C[C@H](OC(=O)[C@H](O)[C@@H](NC(=O)c4ccccc4)c4ccccc4)C(C)=C1C3(C)C)[C@]1(OC(C)=O)CO[C@@H]1C[C@@H]2O [PACLITAXEL]	56	7	6	> 5000	> 10000	–
